Measured values published in US10610575B2, “Method for improving feed digestibility in bovine animals” (DSM IP ASSETS B.V., priority 2015, dated 2020).

Test system: finishing Nelore cattle in feedlot
Experiment: Animal performance trial: Crina Ruminants and Ronozyme Rumistar for finishing Nelore cattle in feedlot
Format: in vivo
Method: The study has been carried out at facilities of Animal Science Department at ESALQ/USP (University of São Paulo), Piracicaba-SP, Brazil. Treatments have been allocated in fifty pens, with 6 animals per pen. Water has been supplied for ad libitum consumption and feed once a day. Cattle have been withheld from feed and water for 16 hours before body weight (BW) assessment at the beginning and at the end of the experiment. After 28 and 56 days body weight (BW) has been assessed to monitor the partial average daily gain. [table] [table]

`CC[C@@]1([C@@H]2O[C@@H]([C@H]3O[C@@](O)(CO)[C@H](C)C[C@@H]3C)C[C@@H]2C)CC[C@H]([C@]2(C)CC[C@]3(C[C@H](O)[C@@H](C)[C@@H]([C@@H](C)[C@@H](OC)[C@H](C)C(=O)O)O3)O2)O1` [MONENSIN, Monensin] was tested, and the “ADG (average daily gain)” value (After 59 days) was 1.342b kg/d, the “DMI (dry matter intake)” value (After 59 days) was 8.63b kg/d and the “FE (feed efficiency), ADG:DMI” value (After 59 days) was 0.155b. The “ADG (average daily gain)” value (adaptation period - 28 days) was 1.352b kg/d, the “DMI (dry matter intake)” value (adaptation period - 28 days) was 7.73b kg/d and the “FE (feed efficiency), ADG:DMI” value (adaptation period - 28 days) was 0.177bc.
